The record followed here is ChEMBL document CHEMBL5325426, “Structure-based discovery of potent USP28 inhibitors derived from Vismodegib” (Eur J Med Chem, 2023).

pIC50: −log10 of the molar value.

Assay [1] addresses T1, Ubiquitin carboxyl-terminal hydrolase 28 (Homo sapiens, UniProt Q96RU2).
T1 sequence (Q96RU2 whole entry): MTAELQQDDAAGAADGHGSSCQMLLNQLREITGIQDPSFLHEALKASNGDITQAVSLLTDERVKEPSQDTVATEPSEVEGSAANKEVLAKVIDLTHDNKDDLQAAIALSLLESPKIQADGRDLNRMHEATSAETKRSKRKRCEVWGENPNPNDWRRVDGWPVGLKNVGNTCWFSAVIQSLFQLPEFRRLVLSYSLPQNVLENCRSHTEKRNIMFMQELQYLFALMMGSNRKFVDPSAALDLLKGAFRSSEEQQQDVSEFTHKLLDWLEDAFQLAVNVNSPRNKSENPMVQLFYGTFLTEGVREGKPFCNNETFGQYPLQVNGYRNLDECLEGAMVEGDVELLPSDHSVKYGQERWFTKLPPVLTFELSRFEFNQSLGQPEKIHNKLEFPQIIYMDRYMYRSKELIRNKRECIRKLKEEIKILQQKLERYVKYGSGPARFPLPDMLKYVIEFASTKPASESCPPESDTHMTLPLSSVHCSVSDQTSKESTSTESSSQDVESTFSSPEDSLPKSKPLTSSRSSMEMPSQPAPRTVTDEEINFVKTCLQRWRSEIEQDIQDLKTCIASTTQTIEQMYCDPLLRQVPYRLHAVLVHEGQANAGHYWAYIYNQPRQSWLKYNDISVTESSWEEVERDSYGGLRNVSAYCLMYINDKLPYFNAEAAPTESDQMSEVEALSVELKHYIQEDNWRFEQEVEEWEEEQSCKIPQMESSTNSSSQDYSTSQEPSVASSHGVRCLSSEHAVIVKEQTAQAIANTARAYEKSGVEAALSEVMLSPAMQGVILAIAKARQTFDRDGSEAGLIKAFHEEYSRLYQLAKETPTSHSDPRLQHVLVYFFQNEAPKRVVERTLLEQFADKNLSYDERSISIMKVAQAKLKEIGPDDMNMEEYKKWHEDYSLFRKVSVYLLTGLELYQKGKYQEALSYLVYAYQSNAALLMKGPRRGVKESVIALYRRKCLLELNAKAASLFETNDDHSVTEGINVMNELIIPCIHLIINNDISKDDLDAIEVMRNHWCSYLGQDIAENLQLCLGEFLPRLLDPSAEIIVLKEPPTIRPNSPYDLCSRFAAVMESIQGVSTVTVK
Put plainly: Inhibition of USP28 (149 to 703 residues) (unknown origin) expressed in Escherichia coli BL21 (DE3) using Ub-AMC as substrate by fluorescence based analysis.

A further assay concerns HCT-116. Put plainly: Antiproliferative activity against human HCT-116 cells assessed as cell growth inhibition incubated for 3 days by SRB assay. As to conditions: HCT-116, 72 h. The class given is functional, cell-based.
In a further assay the test system is LS174T. Put plainly: Antiproliferative activity against human LS174T cells assessed as cell growth inhibition incubated for 3 days by SRB assay. It is filed as functional, cell-based. The following applies: 72 h.
The subject of another assay is NCI-H226. Put plainly: Antiproliferative activity against human NCI-H226 cells assessed as cell growth inhibition incubated for 3 days by SRB assay. It is filed as functional, cell-based. The following applies: NCI-H226, 72 h.
The next assay relates to Calu-1. The assay is described as follows: Antiproliferative activity against human Calu-1 cells assessed as cell growth inhibition incubated for 3 days by SRB assay. The class given is functional, cell-based. The following applies: Calu-1, 72 h.

In the case of `Cc1ccc2c(N)c(C(=O)N[C@H]3CCc4cc(N5CC6CCC(C5)N6)ccc4C3)sc2n1`, the pIC50 in assay [1] is 6.96; in the assay with HCT-116, 6.72; with LS174T it was 7.15; with NCI-H226, 6.82; in the assay on Calu-1, 6.49.
For `CS(=O)(=O)c1ccc(C(=O)Nc2ccc(Cl)c(-c3cccc(N)c3)c2)c(Cl)c1`, the pIC50 in assay [1] was 4.96.
As to `CS(=O)(=O)c1ccc(C(=O)Nc2cc(Cl)cc(-c3ccc(CN)cc3)c2)c(Cl)c1`, the pIC50 in assay [1] was 5.95.
In assay [1], `CS(=O)(=O)c1ccc(C(=O)Nc2ccc(Cl)c(-c3ccc(CN)cn3)c2)c(Cl)c1` had a negative logarithm of the IC50 (pIC50) of 5.67.
`CS(=O)(=O)c1ccc(C(=O)Nc2ccc(Cl)c(-c3ccc(CN)cc3)c2)c(Cl)c1`: the pIC50 in assay [1] was 6.44.
The same measure, in the same setting: the same measure for `CN(C)c1ccc(-c2cc(NC(=O)c3ccc(S(C)(=O)=O)cc3Cl)ccc2Cl)cc1`: 5.55.
Compound `CS(=O)(=O)c1ccc(C(=O)Nc2ccc(Cl)c(-c3cccc(CN)c3)c2)c(Cl)c1` showed a pIC50 in assay [1] of 6.82.
Still for that read-out and setting: the same measure for `CS(=O)(=O)c1ccc(C(=O)Nc2ccc(Cl)c(-c3ccc(N4CCNCC4)cc3)c2)c(Cl)c1`: 5.37; for `CS(=O)(=O)c1ccc(C(=O)Nc2ccc(Cl)c(-c3ccc(N)cc3)c2)c(Cl)c1`: 5.25; for `CS(=O)(=O)c1ccc(C(=O)Nc2ccc(Cl)c(-c3ccccc3N)c2)c(Cl)c1`: 5.07.
Same read-out and setting: the same measure for `COc1ccc(-c2cc(NC(=O)c3ccc(S(C)(=O)=O)cc3Cl)ccc2Cl)cc1`: 5.53.
